Test results: US20080125397A1, “2 (SULFONYL)ETHYL N,N,N',N' tetrakis(2 chloroethyl)phosphorodia” (Telik, Inc., priority 2006, published 2008)

Assays:
Solubility in water = assay type: physicochemical
[1] = Safety at the doses tested in the in vivo examples; design: species or system athymic nu/nu mice
Experimental: (§1) Female athymic nu/nu mice (Harlan, Indianapolis, Ind., U.S.A. or similar vendor), 6-8 weeks old (approximately 20 g), were implanted in the mammary fat pad of the right fore flank with 20-30 mg pieces of MX-1 tumor harvested from similar nu/nu mice that had previously been implanted with the MX-1 tumor. […] Groups of mice were treated with 2-({2-oxo-2-[(pyridin-3-ylmethyl)amino]ethyl}sulfonyl)ethyl N,N,N′,N′-tetrakis(2-chloroethyl)phosphorodiamidate hydrochloride at 50 and 100 mg/Kg, dissolved in aqueous 5% dextrose, by intraperitoneal injection once/day for 5 consecutive days, with vehicle control. Tumor mass, estimated from volume, was measured twice weekly; and tumor growth inhibition was measured when the average tumor mass in the control group first exceeded 2000 mg.
(§2) A study similar to that described in In vivo Example 1 was performed using oral administration of 2-({2-oxo-2-[(pyridin-3-ylmethyl)amino]ethyl}sulfonyl)ethyl N,N,N′,N′-tetrakis(2-chloroethyl)phosphorodiamidate hydrochloride. A group of mice was treated with the compound, dissolved in water, at 150 mg/Kg by gavage once/day for 5 consecutive days (with vehicle control).
A study similar to that described in In vivo Example 1 was performed using intravenous administration of 2-({2-oxo-2-[(pyridin-3-ylmethyl)amino]ethyl}sulfonyl)ethyl N,N,N′,N′-tetrakis(2-chloroethyl)phosphorodiamidate hydrochloride. […]

MX-1 (breast carcinoma) = experiment: Cytotoxicity/growth inhibition assay (CellTiter-Glo), MX-1; assay type: cell-based, human
Experimental: (§3) The human cancer cell lines DLD-1 (colorectal adenocarcinoma), LNCaP (prostate carcinoma), and MIA PaCa-2 (pancreatic carcinoma) were obtained from the American Type Culture Collection, Manassas, Va., U.S.A., and MX-1 (breast carcinoma) from the National Cancer Institute, Bethesda, Md., U.S.A. The CellTiter-Glo assay kit was obtained from Promega Corporation, Madison, Wis., U.S.A. All products were used in accordance with manufacturer's directions. All assays were conducted in triplicate wells, with dimethyl sulfoxide (DMSO) solvent control. The extent of cell growth was expressed as a percentage of the signal from the solvent control wells.
(§4) Log-phase cells were trypsinized, collected by centrifugation, and resuspended in a small volume of fresh medium, and the density of viable cells was determined following Trypan Blue staining. Cells were diluted in fresh media (3×10^3 cells/mL for DLD-1, MIA PaCa-2, and MX-1, and 6×10^3 cells/mL for LNCaP), and added at 150 μL/well to 96-well plates, and incubated for several hours to allow attachment in the case of adherent cells. […] After incubation for 10 minutes at room temperature, and the plate was read with a luminometer.

[2] = tested on: MIA PaCa-2 (pancreatic carcinoma); experiment: Cytotoxicity/growth inhibition assay (CellTiter-Glo), MIA PaCa-2; assay type: cell-based, human
Experimental: as §3, §4

[3] = tested on: DLD-1 (colorectal adenocarcinoma); experiment: Cytotoxicity/growth inhibition assay (CellTiter-Glo), DLD-1; assay type: cell-based, human
Experimental: as §3, §4

[4] = tested on: LNCaP (prostate carcinoma); experiment: Cytotoxicity/growth inhibition assay (CellTiter-Glo), LNCaP; assay type: cell-based, human
Experimental: as §3, §4

MX-1 tumor [5] = experiment: MX-1 xenograft assay, oral administration; assay type: in vivo, athymic nu/nu mice; conditions: 150 mg/Kg by gavage once/day for 5 consecutive days
Experimental: as §1, §2

MX-1 tumor [6] = experiment: MX-1 xenograft assay, intravenous administration; assay type: in vivo, athymic nu/nu mice
Experimental: as §1
as §2, with “intravenous” for “oral”, “aqueous 5% dextrose,” for “water,”, “40 and 80” for “150”, “tail vein injection” for “gavage”

MX-1 tumor [7] = experiment: MX-1 xenograft assay, intraperitoneal administration; assay type: in vivo, athymic nu/nu mice
Experimental: as §1

MIA PaCa-2 tumor = experiment: MiaPaCa-2 xenograft assay, intraperitoneal administration; assay type: in vivo, athymic nu/nu mice; conditions: 100 mg/Kg intraperitoneal once/day for 7 consecutive days
Experimental: Male athymic nu/nu mice, 6-8 weeks old (approximately 20 g), were implanted subcutaneously in the right fore flank with 20-30 mg pieces of MIA PaCa-2 tumor harvested from similar nu/nu mice that had previously been implanted with the MIA PaCa-2 tumor. […] A group of mice was treated with 2-({2-oxo-2-[(pyridin-3-ylmethyl)-amino]ethyl}sulfonyl)ethyl N,N,N′,N′-tetrakis(2-chloroethyl)phosphorodiamidate hydrochloride, dissolved in aqueous 5% dextrose, at 100 mg/Kg by intraperitoneal injection once/day for 7 consecutive days, with vehicle control.

SMILES	solubility (Solubility in water) [µg/mL]	safety/toxicity [1]	potency compared with canfosfamide (MX-1 (breast carcinoma); MX-1)	potency compared with canfosfamide ([2]; MIA PaCa-2)	potency compared with canfosfamide ([3]; DLD-1)	potency compared with canfosfamide [4]	inhibition of tumor growth compared to vehicle (MX-1 tumor [5]) [%]	IC50 (MX-1 (breast carcinoma); Homo sapiens, 72 h, MX-1, 3 days culture) [µM]	inhibition of tumor growth compared to vehicle (MX-1 tumor [6]; 40 mg/Kg tail vein injection once/day for 5 consecutive days) [%]	inhibition of tumor growth compared to vehicle (MX-1 tumor [6]; 80 mg/Kg tail vein injection once/day for 5 consecutive days) [%]	inhibition of tumor growth compared to vehicle (MX-1 tumor [7]; 50 mg/Kg intraperitoneal once/day for 5 consecutive days) [%]	inhibition of tumor growth compared to vehicle (MX-1 tumor [7]; 100 mg/Kg intraperitoneal once/day for 5 consecutive days) [%]	IC50 ([2]; Homo sapiens, 72 h, MIA PaCa-2, 3 days culture) [µM]	IC50 ([3]; Homo sapiens, 96 h, DLD-1, 4 days culture) [µM]	IC50 ([4]; Homo sapiens, 96 h, 4 days culture) [µM]	inhibition of tumor growth compared to vehicle (MIA PaCa-2 tumor) [%]
O=C(CS(=O)(=O)CCOP(=O)(N(CCCl)CCCl)N(CCCl)CCCl)NCc1cccnc1.O=C(O)C(O)C(O)C(=O)O [tartrate salt, 2-({2-Oxo-2-[(pyridin-3-ylmethyl)amino]ethyl}sulfonyl)ethyl N,N,N′,N′-tetrakis(2-chloroethyl)phosphorodiamidate tartrate]	≥ 5000	–	–	–	–	–	–	–	–	–	–	–	–	–	–	–
O=C(CS(=O)(=O)CCOP(=O)(N(CCCl)CCCl)N(CCCl)CCCl)NCc1cccnc1 [2-({2-oxo-2-[(pyridin-3-ylmethyl)amino]ethyl}sulfonyl)ethyl N,N,N′,N′-tetrakis(2-chloroethyl)phosphorodiamidate]	–	safe and non-toxic	at least as potent as canfosfamide	at least as potent as canfosfamide	at least as potent as canfosfamide	at least as potent as canfosfamide	–	–	–	–	–	–	–	–	–	–
Cl.O=C(CS(=O)(=O)CCOP(=O)(N(CCCl)CCCl)N(CCCl)CCCl)NCc1cccnc1 [2-({2-Oxo-2-[(pyridin-3-ylmethyl)amino]ethyl}sulfonyl)ethyl N,N,N′,N′-tetrakis(2-chloroethyl)phosphorodiamidate hydrochloride]	≥ 10000	–	–	–	–	–	67	22	39	98	28	95	16	12	67	92
